Results taken from patent publication US20140221429A1, “HETEROCYCLIC SCHIFF'S BASES AS NOVEL AND NEW ANTIGLYCATION AGENTS” (priority 2013, published 2014).
Where “and” joins values, the source holds several entries; their conditions need not be identical. Identical values can stand only once. Like-named read-outs stand apart in the source and are kept apart here. Blank lines part the entries; values can stand above or below the compound they belong to.

Molecular target: T1, bovine serum albumin (BSA-methylglyoxal glycation) (Bos taurus, UniProt P02769)
T1 construct: purchased Merck Marker Pvt; Ltd. (Germany)
T1 sequence (P02769 25-607): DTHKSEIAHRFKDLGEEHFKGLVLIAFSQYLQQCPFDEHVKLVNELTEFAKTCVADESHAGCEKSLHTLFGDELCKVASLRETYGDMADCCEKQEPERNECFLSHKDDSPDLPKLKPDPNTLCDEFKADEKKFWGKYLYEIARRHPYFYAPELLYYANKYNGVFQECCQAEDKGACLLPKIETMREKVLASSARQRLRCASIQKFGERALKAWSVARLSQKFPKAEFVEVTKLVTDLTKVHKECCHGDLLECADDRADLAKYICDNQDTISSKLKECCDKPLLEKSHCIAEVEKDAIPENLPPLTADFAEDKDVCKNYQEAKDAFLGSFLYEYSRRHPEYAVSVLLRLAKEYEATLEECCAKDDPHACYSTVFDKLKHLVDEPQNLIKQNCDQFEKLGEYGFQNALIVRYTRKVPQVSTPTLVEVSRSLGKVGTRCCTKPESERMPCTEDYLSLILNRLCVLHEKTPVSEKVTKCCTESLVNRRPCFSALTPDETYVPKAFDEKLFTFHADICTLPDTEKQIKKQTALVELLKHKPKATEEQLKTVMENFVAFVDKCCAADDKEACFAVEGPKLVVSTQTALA
Assay: in vitro BSA-MG glycation model (antiglycation assay)
Type: biochemical
Conditions: for inhibition at 1000 µM: read-out: inhibition of protein glycation
Procedure: Bovine Serum Albumin (BSA) was purchased from Merck Marker Pvt. Ltd. (Germany), rutin and methylglyoxal (MG) (40% aqueous solution) were from Sigma Aldrich (Japan), sodium dihydrogen phosphate (NaH2PO4), disodium hydrogen phosphate (Na2HPO4) and sodium azide (NaN3) were purchased from Scharlau Chemie, S. A. (Spain), while dimethyl sulphoxide (DMSO) was purchased from Fischer Scientific (UK).
The total reaction volume of the assay was 200 μL, having final concentrations of 10 mg/mL BSA, 14 mM methylglyoxal, and 1 mM test compounds. 10 mg/mL solution of BSA and 14 mM methylglyoxal was prepared in 0.1 M phosphate buffer (pH 7.4), containing sodium azide (NaN3) (30 mM) as antimicrobial agent, while 1 mM solutions of test compounds were prepared in the DMSO. Assay was performed in triplicate. Each reaction mixtures were comprised of 50 μL BSA, 50 μL methylglyoxal, 20 μL test compound and 80 μL phosphate buffer (pH 7.4). The reaction mixture was incubated under aseptic conditions at 37° C. for 9 days.
After completion of nine days of incubation, each sample was examined for the development of specific fluorescence (excitation 330 nm; emission 420 nm) against blank on a microtitre plate reader (SpectraMax M2, Molecular Devices, CA, USA).
The percent inhibition of AGE formation by the test sample versus control was calculated by using the following formula:
% Inhibition=([…]−Fluorescence of test sample/Fluorescence of the control)×100
The IC50 (i.e. the concentration of test samples that inhibit the process of glycation to 50%) was determined by monitoring the effect of various concentrations (ranges from 1000-50 μM) of test compounds. The IC50 values were calculated by using EZ-FIT Enzyme Kinetics Program (Perrella Scientific Inc., Amherst, USA). The antiglycation potential of test compounds was compared with rutin, which was used as standard inhibitor.

[1] = Antiglycation Studies IC50 ± SEM, BSA-MG model, 10 mg/mL BSA, 14 mM methylglyoxal, 37° C., 9 days, fluorescence ex 330/em 420 nm

SMILES: Cc1ccc(C=NNC(=O)c2cccs2)o1 [Compound 4, 2-Thiophencarboxylic acid, [(5-methyl-2-furanyl)methylene] hydrazide (9CI)]
IC50 (Antiglycation IC50 (unit printed as μ), BSA-MG model assay): 442.8 ± 0.68 µM
IC50 [1]: 442.8 ± 0.68 µM
antiglycation activity (in words) (BSA-MG model): moderate inhibition

SMILES: O=C(NN=Cc1cccc([N+](=O)[O-])c1)c1ccccc1 [Compound 1, N′-(3-Nitrobenzylidene)benzohydrazide]
Antiglycation Studies IC50 ± SEM: Inactive
antiglycation activity (in words): inactive
inhibition at 1000 µM: < 50%

SMILES: O=C(NN=Cc1ccco1)c1cccs1 [Compound 3, 2-Thiophenecarboxylic acid, (2-furanylmethylene)hydrazide (9CI)]
IC50 [1]: 520.8 ± 1.8 µM
antiglycation activity (in words) (BSA-MG model): moderate inhibition

SMILES: O=C(NN=Cc1ccccc1[N+](=O)[O-])c1ccccc1 [Compound 2, N′-(2-Nitrobenzylidene)benzohydrazide]
Antiglycation Studies IC50 ± SEM: Inactive
antiglycation activity (in words): inactive
inhibition at 1000 µM: < 50%

SMILES: C[C@@H]1O[C@@H](OC[C@H]2O[C@@H](Oc3c(-c4ccc(O)c(O)c4)oc4cc(O)cc(O)c4c3=O)[C@H](O)[C@@H](O)[C@@H]2O)[C@H](O)[C@H](O)[C@H]1O [Rutin, reference compound]
IC50 (BSA-MG model, 10 mg/mL BSA, 14 mM methylglyoxal, 37° C., 9 days, fluorescence ex 330/em 420 nm, read-out: Antiglycation Studies IC50 ± SEM): 294 µM and 295 µM

Further lines, results first:

IC50 [1]: 862.8 ± 3.3 µM
SMILES: C(=Nc1ccc(Cc2ccc(N=Cc3ccccn3)cc2)cc1)c1ccccn1 [Compound 6, Bis[4-(2-pyridylmethyleneamino)phenyl]methane]

IC50 [1]: 397.2 ± 2.2 µM
SMILES: C(=NNc1ccccn1)c1ccccn1 [Compound 5, 1,3-Bis(2′-pyridyl)-1,2-diazapropen-2-ene]
